Converted amounts (≈) assume the structure as drawn. Like-named read-outs stand apart in the source and are kept apart here.
What was measured:
[1] = system: MEM-nonsusceptible Enterobacterales; test: MIC, broth microdilution; format: cell-based; conditions: MEM-nonsusceptible Enterobacterales (92), CDC AR Bank
[2] = system: serine-carbapenemase-producing isolates (Enterobacterales); test: MIC, broth microdilution; format: cell-based; conditions: Enterobacterales with serine-carbapenemases (61), CDC AR Bank
[3] = system: 55 isolates of A. baumannii; test: MIC, broth microdilution; format: cell-based, Acinetobacter baumannii; conditions: Acinetobacter baumannii (55), fixed concentration (μg/mL) in label
[4] = system: 96 P. aeruginosa; test: MIC, broth microdilution; format: cell-based, Pseudomonas aeruginosa; conditions: Pseudomonas aeruginosa (96)
[5] = system: MEM-, imipenem/relebactam-, and ceftolozane/tazobactam-nonsusceptible P. aeruginosa; test: MIC, broth microdilution; format: cell-based, Pseudomonas aeruginosa; conditions: for MIC50 / MIC90: Pseudomonas aeruginosa; for MIC50: read-out: MIC50; for MIC90: read-out: MIC90
[6] = system: E. coli CDC-119 (NDM-1), PBP3 mutations; test: MIC, broth microdilution; format: cell-based; conditions: Escherichia coli
[7] = system: E. coli CDC-137 (NDM-6), PBP3 mutations; test: MIC, broth microdilution; format: cell-based; conditions: Escherichia coli, fixed BLI concentration (μg/mL) in parentheses in label
[8] = system: E. coli CDC-149 (NDM-7), PBP3 mutations; test: MIC, broth microdilution; format: cell-based; conditions: Escherichia coli
[9] = system: E. coli CDC-150 (NDM-5), PBP3 mutations; test: MIC, broth microdilution; format: cell-based; conditions: Escherichia coli, fixed BLI concentration (μg/mL) in parentheses in label
[10] = system: E. coli CDC-151 (NDM-5), PBP3 mutations; test: MIC, broth microdilution; format: cell-based; conditions: Escherichia coli, fixed BLI concentration (μg/mL) in parentheses in label
[11] = system: E. coli CDC-162 (NDM-7), PBP3 mutations; test: MIC, broth microdilution; format: cell-based; conditions: Escherichia coli
[12] = system: E. coli CDC-435 (NDM-1), PBP3 mutations; test: MIC, broth microdilution; format: cell-based; conditions: Escherichia coli, fixed BLI concentration (μg/mL) in parentheses in label
[13] = system: Enterobacterales (154), CDC AR Bank; test: MIC, broth microdilution; format: cell-based
[14] = system: MEM-nonsusceptible Enterobacterales with serine-carbapenemases; test: MIC, broth microdilution; format: cell-based; conditions: MEM-nonsusceptible Enterobacterales with serine-carbapenemases (42), CDC AR Bank
[15] = system: MEM-nonsusceptible Enterobacterales with metallo-carbapenemases; test: MIC, broth microdilution; format: cell-based; conditions: MEM-nonsusceptible Enterobacterales with metallo-carbapenemases (41), CDC AR Bank; for MIC50 / MIC90: fixed concentration (μg/mL) in label; for MIC50: read-out: MIC50; for MIC90: read-out: MIC90
[16] = system: Cefepime/taniborbactam-nonsusceptible Enterobacterales with metallo-carbapenemases (25); test: MIC, broth microdilution; format: cell-based; conditions: CDC AR Bank; for MIC50 / MIC90: fixed concentration (μg/mL) in label
[17] = system: MBL-producing isolates (Enterobacterales); test: MIC, broth microdilution; format: cell-based; conditions: Enterobacterales with metallo-carbapenemases (47), CDC AR Bank, fixed concentration (μg/mL) in label
[18] = system: Acinetobacter baumannii (46); test: MIC, broth microdilution; format: cell-based
[19] = system: Clostridioides difficile ATCC 700057; test: MIC, agar dilution, reference strains of anaerobic bacteria; format: cell-based; conditions: ATCC700057
[20] = system: Clostridioides difficile ATCC 43255; test: as above; format: cell-based; conditions: ATCC43255
[21] = system: Clostridioides difficile ATCC BAA-1803; test: as above; format: cell-based; conditions: ATCCBAA1803
[22] = system: Clostridioides difficile ATCC BAA-1870; test: as above; format: cell-based; conditions: ATCCBAA1870
[23] = system: Clostridium perfringens ATCC 13124; test: microbe, parasite or virus in culture; format: cell-based; conditions: ATCC13124
[24] = system: Peptostreptococcus anaerobius ATCC 27337; test: MIC, agar dilution, reference strains of anaerobic bacteria; format: cell-based; conditions: ATCC27337
[25] = system: Peptoniphilus asaccharolyticus ATCC 14963; test: as above; format: cell-based; conditions: ATCC14963
[26] = system: Parvimonas micra KUB3000; test: as above; format: cell-based
[27] = system: Finegoldia magna ATCC 29328; test: as above; format: cell-based; conditions: ATCC29328
[28] = system: Eggerthella lenta ATCC 43055; test: as above; format: cell-based; conditions: ATCC43055
[29] = system: Olsenella uli KUB3012; test: as above; format: cell-based
[30] = system: Bulleidia extructa KUB3013; test: as above; format: cell-based
[31] = system: Atopobium rimae KUB3014; test: as above; format: cell-based; conditions: Lancefieldella rimae
[32] = system: Propionibacterium acnes ATCC 11827; test: as above; format: cell-based; conditions: Cutibacterium acnes, ATCC11827
[33] = system: Actinomyces odontolyticus ATCC 17929; test: as above; format: cell-based; conditions: Schaalia odontolytica, ATCC17929
[34] = system: Bacteroides fragilis ATCC 25285; test: as above; format: cell-based; conditions: ATCC25285
[35] = system: Bacteroides fragilis KUB2982; test: as above; format: cell-based
[36] = system: Bacteroides fragilis KUB2983; test: as above; format: cell-based
[37] = system: Bacteroides thetaiotaomicron ATCC 29741; test: as above; format: cell-based; conditions: ATCC29741
[38] = system: Bacteroides thetaiotaomicron KUB2984; test: as above; format: cell-based
[39] = system: Bacteroides ovatus KUB3009; test: as above; format: cell-based
[40] = system: Prevotella histicola KUB2989; test: as above; format: cell-based
[41] = system: Prevotella intermedia KUB2991; test: as above; format: cell-based
[42] = system: Prevotella melaninogenica KUB3005; test: as above; format: cell-based
[43] = system: Prevotella buccae KUB2992; test: as above; format: cell-based; conditions: Segatella buccae
[44] = system: Fusobacterium varium ATCC 27725; test: as above; format: cell-based; conditions: ATCC27725
[45] = system: Fusobacterium nucleatum ATCC 25586; test: as above; format: cell-based; conditions: ATCC25586
[46] = in humans; cited from earlier work
[47] = CLSI breakpoints, marked c: breakpoints for β-lactam alone
[48] = fixed concentration (μg/mL) in label, read-out: MIC50
[49] = fixed concentration (μg/mL) in label, read-out: MIC90
[50] = Imipenem/relebactam-nonsusceptible Pseudomonas aeruginosa (43), CLSI breakpoints, marked c: breakpoints for β-lactam alone
[51] = MEM-nonsusceptible Pseudomonas aeruginosa (76), CLSI breakpoints, marked c: breakpoints for β-lactam alone
[52] = Imipenem/relebactam-nonsusceptible Pseudomonas aeruginosa (43), fixed concentration (μg/mL) in label
[53] = MEM-nonsusceptible Pseudomonas aeruginosa (76), fixed concentration (μg/mL) in label
[54] = fixed concentration (μg/mL) in label

C[C@H]1[C@H](NC(=O)/C(=N\OC(C)(C)C(=O)O)c2csc(N)n2)C(=O)N1S(=O)(=O)O [ATM, aztreonam]
CLSI MIC interpretation I (intermediate) [1, 47]: 1.1% | CLSI MIC interpretation R (resistant) [1, 47]: 90.2% | CLSI MIC interpretation S (susceptible) [1, 47]: 8.7% | MIC50 [1, 48]: > 64 µg/mL | MIC90 [1, 49]: > 64 µg/mL | CLSI MIC interpretation I (intermediate) [2, 47]: 3.3% | CLSI MIC interpretation R (resistant) [2, 47]: 85.2% | CLSI MIC interpretation S (susceptible) [2, 47]: 11.5% | MIC50 [2, 48]: > 64 µg/mL | MIC90 [2, 49]: > 64 µg/mL | MIC50 ([3]; read-out: MIC50): 64 µg/mL (≈ 147 µM) | MIC90 ([3]; read-out: MIC90): > 64 µg/mL | CLSI MIC interpretation R (resistant) [4, 47]: 47.9% | CLSI MIC interpretation S (susceptible) [4, 47]: 39.6% | MIC50 [4, 48]: 16 µg/mL (≈ 36.7 µM) | MIC90 [4, 49]: > 64 µg/mL | CLSI MIC interpretation (%) I ([5]; I, intermediate (including susceptible dose-dependent), CLSI breakpoints, last subgroup of Table 2): 8.9% | CLSI MIC interpretation I (intermediate) [5, 50]: 9.3% | CLSI MIC interpretation R (resistant) [5, 50]: 60.5% | CLSI MIC interpretation S (susceptible) [5, 50]: 30.2% | CLSI MIC interpretation R (resistant) [5, 51]: 56.6% | CLSI MIC interpretation S (susceptible) [5, 51]: 30.3% | MIC50 [5, 52]: 32 µg/mL | MIC90 [5, 52]: > 64 µg/mL | MIC50 [5, 53]: 32 µg/mL (≈ 73.5 µM) | MIC90 [5, 53]: > 64 µg/mL | MIC50 ([5]; Table 2, broth microdilution): 32 µg/mL (≈ 73.5 µM) | MIC90 ([5]; Table 2, broth microdilution): > 64 µg/mL | CLSI MIC interpretation (%) R ([5]; R, resistant, CLSI breakpoints, last subgroup of Table 2): 62.2% | CLSI MIC interpretation (%) S ([5]; S, susceptible, CLSI breakpoints, last subgroup of Table 2): 28.9% | MIC [6]: > 64 µg/mL | MIC [7]: > 64 µg/mL | MIC [8]: 0.5 µg/mL (≈ 1.15 µM) | MIC [9]: 32 µg/mL (≈ 73.5 µM) | MIC [10]: 32 µg/mL (≈ 73.5 µM) | MIC [11]: > 64 µg/mL | MIC [12]: > 64 µg/mL | CLSI MIC interpretation I (intermediate) [13, 47]: 2.6% | CLSI MIC interpretation R (resistant) [13, 47]: 80.5% | CLSI MIC interpretation S (susceptible) [13, 47]: 16.9% | MIC50 [13, 54]: > 64 µg/mL | MIC90 [13, 54]: > 64 µg/mL | CLSI MIC interpretation I (intermediate) [14, 47]: 2.4% | CLSI MIC interpretation R (resistant) [14, 47]: 92.9% | CLSI MIC interpretation S (susceptible) [14, 47]: 4.8% | MIC50 [14, 48]: > 64 µg/mL | MIC90 [14, 49]: > 64 µg/mL | CLSI MIC interpretation I (intermediate) [15, 47]: 0% | CLSI MIC interpretation R (resistant) [15, 47]: 85.4% | CLSI MIC interpretation S (susceptible) [15, 47]: 14.6% | MIC50 [15]: > 64 µg/mL | MIC90 [15]: > 64 µg/mL | CLSI MIC interpretation I (intermediate) [16, 47]: 0% | CLSI MIC interpretation R (resistant) [16, 47]: 96% | CLSI MIC interpretation S (susceptible) [16, 47]: 4% | MIC50 [16]: > 64 µg/mL | MIC90 [16]: > 64 µg/mL

CO/N=C(\C(=O)N[C@@H]1C(=O)N2C(C(=O)[O-])=C(C[N+]3(C)CCCC3)CS[C@H]12)c1csc(N)n1 [FEP, cefepime]
MIC50 ([17]; read-out: MIC50): > 64 µg/mL | MIC90 ([17]; read-out: MIC90): > 64 µg/mL | MIC [6]: > 64 µg/mL | MIC [7]: > 64 µg/mL | MIC [8]: > 64 µg/mL | MIC [9]: > 64 µg/mL | MIC [10]: > 64 µg/mL | MIC [11]: > 64 µg/mL | MIC [12]: > 64 µg/mL | MIC50 [15]: > 64 µg/mL | MIC90 [15]: > 64 µg/mL | MIC50 [16]: > 64 µg/mL | MIC90 [16]: > 64 µg/mL | CLSI MIC interpretation I (intermediate) [18, 47]: 4.3% | CLSI MIC interpretation R (resistant) [18, 47]: 95.7% | CLSI MIC interpretation S (susceptible) [18, 47]: 0% | MIC50 [18, 54]: 64 µg/mL (≈ 133 µM) | MIC90 [18, 54]: > 256 µg/mL

Cc1ncc([N+](=O)[O-])n1CCO [Metronidazole, metronidazole]
MIC [19]: 0.5 µg/mL (≈ 2.92 µM) | MIC [20]: 1 µg/mL (≈ 5.84 µM) | MIC [21]: 2 µg/mL (≈ 11.7 µM) | MIC [22]: 1 µg/mL (≈ 5.84 µM) | MIC [23]: 2 µg/mL (≈ 11.7 µM) | MIC [24]: 0.5 µg/mL (≈ 2.92 µM) | MIC [25]: 1 µg/mL (≈ 5.84 µM) | MIC [26]: 0.5 µg/mL (≈ 2.92 µM) | MIC [27]: 2 µg/mL (≈ 11.7 µM) | MIC [28]: 1 µg/mL (≈ 5.84 µM) | MIC [29]: 4 µg/mL (≈ 23.4 µM) | MIC [30]: 2 µg/mL (≈ 11.7 µM) | MIC [31]: 1 µg/mL (≈ 5.84 µM) | MIC [32]: > 64 µg/mL | MIC [33]: > 64 µg/mL | MIC [34]: 1 µg/mL (≈ 5.84 µM) | MIC [35]: 2 µg/mL (≈ 11.7 µM) | MIC [36]: 0.5 µg/mL (≈ 2.92 µM) | MIC [37]: 2 µg/mL (≈ 11.7 µM) | MIC [38]: 1 µg/mL (≈ 5.84 µM) | MIC [39]: 1 µg/mL (≈ 5.84 µM) | MIC [40]: 2 µg/mL (≈ 11.7 µM) | MIC [41]: 1 µg/mL (≈ 5.84 µM) | MIC [42]: 1 µg/mL (≈ 5.84 µM) | MIC [43]: 2 µg/mL (≈ 11.7 µM) | MIC [44]: 0.5 µg/mL (≈ 2.92 µM) | MIC [45]: ≤ 0.125 µg/mL

O=C(O)c1c(F)ccc2c1OB(O)[C@@H]1C[C@H]21 [xeruborbactam]
protein binding rate [46]: over 90%

From PMC11620503 (Antimicrobial Agents and Chemotherapy, 2024)
